# Test results published in publication PMC9021288 (Nature Communications, 2022).
# Where “and” joins values, the source holds several entries; their conditions need not be identical. Identical values can stand only once. Like-named read-outs stand apart in the source and are kept apart here.
# Columns and labels:
# [1] = test system: P. falciparum NF54-HGL gametocytes; experiment: Gametocyte viability assay (72 h, luminescence); format: cell-based, Plasmodium falciparum
# Description: (§1) Gametocyte viability assays on NF54-HGL parasites were performed using an adapted high-throughput protocol as previously described[15],[64]. In short, asexual blood-stage parasite cultures were set up at 1% parasitemia in a semi-automated shaker system at 5% hematocrit. From day four until day eight or nine, parasites were treated with 50 mM N-acetyl glucosamine to eliminate all asexual blood-stage parasites. Subsequently, gametocytes were isolated by a Percoll density gradient centrifugation. At day 11, gametocytes were seeded (5,000 per well) in 30 µl in white 384-well plates containing 30 µl of compounds diluted in medium (0.1% DMSO). After a 72-h incubation, 30 µl of ONE-Glo reagent (Promega) was added according to manufacturer’s protocol and luminescence was quantified using the BioTek Synergy 2 Plate reader. Values were normalized to DMSO- and epoxomicin or dihydroartemisinin-treated controls.
# [2] = test system: cryopreserved human primary hepatocytes; experiment: in vitro; settings: for Human hepatocyte CLint: hepatocytes; for % Remaining: 10 µM, single replicates
# Source text: Briefly, cryopreserved human primary hepatocytes were thawed and cultured as described above.
# [3] = test system: P. falciparum Pf3D7^0087/N9; experiment: Single dose in vivo efficacy in humanized NSG mice; parameters: species or system Plasmodium falciparum; settings: for parasitemia outcome: single 50 mg/kg oral gavage on day 4, over three days
# Description: The effect of pantothenamides on P. falciparum Pf3D7^0087/N9 [66] in vivo was assessed in female NSG mice (NODscidIL2Rγ^null) at the Swiss Tropical and Public Health Institute (Basel, Switzerland) as described previously (Supplementary Table 30)[15],[67]. Briefly, humanized mice were engrafted daily with human erythrocyte suspensions from days -11 to day 6. […] On day 4, groups of n = 2 mice were treated with a single dose pantothenamides or chloroquine (50 mg/kg) by oral gavage. […] Serial dilutions were prepared in the same solvent to concentrations 50 times higher than the corresponding CAL and QC concentrations. The concentrations were calculated under consideration of purity and salt factor. The spiking of the CAL and QC sample were performed at room temperature.
# [4] = test system: P. falciparum T648M / T627A AcAS mutant gametocytes; format: cell-based, Plasmodium falciparum
# Description: as §1
# [5] = test system: P. falciparum NF54-HGL, dT648M, cT648M, cT627A asexual blood stages; experiment: Asexual drug-sensitivity of AcAS mutant parasites; format: cell-based, Plasmodium falciparum
# Description: Replication assays were performed using a SYBR Green method as described previously. Briefly, asynchronous parasites were diluted to 0.83% parasitemia, 3% hematocrit in 30 µl medium, and added to 30 µl of diluted compounds in medium (0.1% DMSO final concentration) in black 384-wells plates. After a 72-h incubation, 30 µl of SYBR Green diluted in lysis buffer was added according to the manufacturer’s protocol (Life Technologies). Fluorescence intensity was measured on a BioTek Synergy 2 Plate Reader after 1-h incubation and was normalized to a DMSO control (100% growth) and DHA- or epoxomicin-treatment (no growth). […] Parasite survival was assessed by flow cytometry on an Accuri C6 (BD Biosciences) with BD C6 Plus software using SYBR Green and MitoTracker Deep Red FM (Life Technologies) as nuclear stain and vital dye, respectively, and data were analyzed using FlowJo (10.5.0). […] Luminescence was measured after 72 h using the Renilla-Glo(R) Luciferase Assay System (Promega E2750) and the GlomAX® Discover Multimode Microplate Reader (Promega). The luminescence values were normalized to DMSO vehicle (100% growth) and 200 nM chloroquine-treated (no growth) samples as controls.
# The mutation found in selected drug-resistant parasites was verified by introducing the point mutations in AcAS (T648M and T627A) in NF54-HGL parasites using a CRISPR-Cas9 system as described previously. The oligonucleotides for the guide RNA and the donor template were cloned into a pDC2-based plasmid containing a Cas9 and guide cassette, using the BbsI and EcoRI/AatII restriction sites, respectively. Donor DNA was amplified by (overlap-extension) PCR amplification from genomic P. falciparum DNA and oligonucleotides for the guide RNAs were ordered (Sigma-Aldrich). The correct sequence and integration of both inserts were confirmed by Sanger Sequencing.
# [6] = day 5 post infection, 50 mg/kg p.o. on day 4, per mouse, 50 mg/kg
# [7] = day 6 post infection, per mouse
# [8] = day 7 post infection, per mouse
# [9] = per replicate experiment, read-out: IC50, sexual blood stages
compound,measurement,setting,value
CC(C)(CO)[C@@H](O)C(=O)NCCNC(=O)c1cc(C#N)ccc1F [MMV976394],"Sexual blood stages viability, dose-response",[1]; Log concentration (M) -6,82.2 and 80.4
same,"Sexual blood stages viability, dose-response",[1]; Log concentration (M) -6.5,89.6 and 82.4
same,"Sexual blood stages viability, dose-response",[1]; Log concentration (M) -7,87.4 and 85.95
same,"Sexual blood stages viability, dose-response",[1]; Log concentration (M) -7.5,108.15 and 96.65
same,"Sexual blood stages viability, dose-response",[1]; Log concentration (M) -8,91.85 and 97.6
same,"Sexual blood stages viability, dose-response",[1]; Log concentration (M) -8.5,92.6 and 88
same,"Sexual blood stages viability, dose-response",[1]; Log concentration (M) -9,87.75 and 103.75
same,"Sexual blood stages viability, dose-response",[1]; Log concentration (M) -9.5,90 and 115.4
same,"Sexual blood stages viability, dose-response",[1]; Log concentration (M) -10,90 and 95.6
same,Human hepatocyte CLint,[2],0.2 µl/min/10^6 cells
same,Parasitemia,[3]; [6],0.56 and 0.41
same,Parasitemia,[3]; [7],0.32
same,Parasitemia,[3]; [8],0.17
same,parasitemia outcome,[3],not fully cleared
C[C@@H](CNC(=O)[C@H](O)C(C)(C)CO)NC(=O)c1cc(C#N)ccc1F [MMV693182],"Sexual blood stages viability, dose-response",[1]; Log concentration (M) -7.5,49.3 and 51
same,"Sexual blood stages viability, dose-response",[1]; Log concentration (M) -8,81.9 and 78.35
same,"Sexual blood stages viability, dose-response",[1]; Log concentration (M) -8.5,96 and 103.7
same,"Sexual blood stages viability, dose-response",[1]; Log concentration (M) -9,97.2 and 103.7
same,"Sexual blood stages viability, dose-response",[1]; Log concentration (M) -9.5,95 and 105.75
same,"Sexual blood stages viability, dose-response",[1]; Log concentration (M) -10,95.6 and 117.9
same,IC50,"[1]; Plasmodium falciparum, NF54, per replicate experiment, read-out: IC50, sexual blood stages",32.9 nM
same,IC50,"[1]; Plasmodium falciparum, NF54, sexual viability assay, range of independent experiments, read-out: Gametocyte IC50 range (N)",21.4 to 32.9 nM
same,IC50,[1]; [9],21.4 nM
same,Parasitemia,[3]; [6],0.28 and 0.38
same,Parasitemia,[3]; [7],0.03 and 0.05
same,Parasitemia,[3]; [8],0.02
same,parasitemia outcome,[3],not fully cleared
C[C@@H](CNC(=O)[C@H](O)C(C)(C)CO)NC(=O)c1cccc(F)c1 (stereo in doubt) [MMV1542001],"Sexual blood stages viability, dose-response",[1]; Log concentration (M) -9,60.65 and 74.3
same,"Sexual blood stages viability, dose-response",[1]; Log concentration (M) -9.5,76.05 and 100.7
same,"Sexual blood stages viability, dose-response",[1]; Log concentration (M) -10,85.65 and 89
same,IC50,[1]; [9],1.98 nM and 9.93 nM
same,Human hepatocyte CLint,[2],0.5 µl/min/10^6 cells
same,Parasitemia,[3]; [6],0.4 and 0.31
same,Parasitemia,[3]; [7],0.06 and 0.01
same,Parasitemia,[3]; [8],0
same,parasitemia outcome,[3],reduced parasitemias below detectable levels
C[C@@H](CNC(=O)[C@H](O)C(C)(C)CO)NC(=O)c1cccc(C#N)c1 (stereo in doubt) [MMV884962],"Sexual blood stages viability, dose-response",[1]; Log concentration (M) -9,92.55 and 54.1
same,"Sexual blood stages viability, dose-response",[1]; Log concentration (M) -9.5,110.8 and 104.4
same,"Sexual blood stages viability, dose-response",[1]; Log concentration (M) -10,97.15 and 70.3
same,IC50,[1]; [9],5.95 nM and 2.17 nM
same,Human hepatocyte CLint,[2],0.3 µl/min/10^6 cells
same,Parasitemia,[3]; [6],0.31 and 0.28
same,Parasitemia,[3]; [7],0.05
same,Parasitemia,[3]; [8],0
same,parasitemia outcome,[3],reduced parasitemias below detectable levels
C[C@@H](CNC(=O)[C@H](O)C(C)(C)CO)NC(=O)c1cc(F)c(F)cc1F [MMV693183],"Sexual blood stages viability, dose-response",[1]; Log concentration (M) -7.5,36.75 and 49.45 and 51.8
same,"Sexual blood stages viability, dose-response",[1]; Log concentration (M) -8,69.2 and 83.95 and 95.65
same,"Sexual blood stages viability, dose-response",[1]; Log concentration (M) -8.5,82.4 and 91.1 and 100.8
same,"Sexual blood stages viability, dose-response",[1]; Log concentration (M) -9,98.1 and 92.5 and 103.2
same,"Sexual blood stages viability, dose-response",[1]; Log concentration (M) -9.5,107.25 and 92.05 and 100.45
same,"Sexual blood stages viability, dose-response",[1]; Log concentration (M) -10,92.05 and 87.2 and 94.15
same,IC50,[1]; [9],17.8 nM and 36 nM and 36.8 nM
same,% Remaining,"[2]; hepatocyte donor HC02, 0 h",100.0%
same,% Remaining,"[2]; hepatocyte donor HC02, 6 h",77.4% and 91.4%
same,% Remaining,"[2]; hepatocyte donor HC02, 24 h",90.3% and 124.4%
same,% Remaining,"[2]; hepatocyte donor HC02, 48 h",87.4% and 110.8%
same,% Remaining,"[2]; hepatocyte donor HC02, 72 h",63.9% and 86.8%
same,% Remaining,"[2]; hepatocyte donor HC06, 0 h",100.0%
same,% Remaining,"[2]; hepatocyte donor HC06, 3 h",77.2% and 88.0%
same,% Remaining,"[2]; hepatocyte donor HC06, 6 h",79.3% and 91.3%
same,% Remaining,"[2]; hepatocyte donor HC06, 24 h",87.0% and 115.0%
same,% Remaining,"[2]; hepatocyte donor HC06, 48 h",64.3% and 81.2%
same,% Remaining,"[2]; hepatocyte donor HC06, 72 h",61.0% and 75.3%
same,% Remaining,"[2]; hepatocyte donor HC425, 0 h",100.0%
same,% Remaining,"[2]; hepatocyte donor HC425, 6 h",79.3% and 88.2%
same,% Remaining,"[2]; hepatocyte donor HC425, 24 h",68.0% and 93.2%
same,% Remaining,"[2]; hepatocyte donor HC425, 48 h",73.6% and 94.3%
same,% Remaining,"[2]; hepatocyte donor HC425, 72 h",68.2% and 91.6%
same,% Remaining,"[2]; hepatocyte donor HC1010, 0 h",100.0%
same,% Remaining,"[2]; hepatocyte donor HC1010, 1 h",120.3% and 86.1% and 104.1% and 69.6%
same,% Remaining,"[2]; hepatocyte donor HC1010, 6 h",88.7% and 55.7% and 88.0% and 45.9%
same,% Remaining,"[2]; hepatocyte donor HC1010, 24 h",90.4% and 62.9% and 77.2% and 55.3%
same,% Remaining,"[2]; hepatocyte donor HC1010, 48 h",70.7% and 54.4% and 57.7% and 44.1%
same,% Remaining,"[2]; hepatocyte donor HC1010, 72 h",34.1% and 43.9% and 31.3% and 51.9%
same,CLint,[2]; donor HC02,0.082 µL/min/million cells
same,CLint,[2]; donor HC06,0.142 µL/min/million cells
same,CLint,[2]; donor HC425,0.0695 µL/min/million cells
same,Human hepatocyte CLint,[2],0.4 µl/min/10^6 cells
same,"human hepatocyte clearance, four donors",[2]; range of donors,0.07 to 0.4 µl/min/10^6 cells
same,IC50 shift sexual,[4]; CRISPR cT648M,> 50 ×
same,IC50 shift gametocytes,[4]; selected resistant (dT648M) gametocytes,> 50 ×
same,Parasitemia,[3]; [6],0.2 and 0.29
same,Parasitemia,[3]; [7],0.03 and 0.02
same,Parasitemia,[3]; [8],0
same,parasitemia outcome,[3],reduced parasitemias below detectable levels
same,sensitivity of T627A AcAS mutant,[5],also resistant to MMV693183
same,IC50 shift asexual,[5]; CRISPR cT648M,49 ×
same,IC50 shift,[5]; NF54 selected at 7 nM,77 x
same,IC50 shift,"[5]; selected resistant parasites vs parent, asexual growth assay",13-77 ×
